Assay results reported in patent US10869465B2, “Transgenic mouse model of retinal vascular disease, method of making, and method of using” (OSAKA UNIVERSITY, priority 2017, dated 2020).

Key:
Assay type in all cases: in vivo
[1] = test system: retina of the constitutively active Akt-Mer Tg mouse; assay: Retina cup observation by optical microscope after persistent activation of Akt (Example 3); settings: 4-OHT i.p. 100 μg/day×3 days, 4th to 6th day after birth; observed 7th day; vs mouse without 4-OHT
Protocol: In this example, an influence of the persistent activation of Akt on the retina in the constitutively active Akt-Mer Tg mouse produced in Example 1 was investigated. Here, the influence on the retina was confirmed by observing the retina of the constitutively active Akt-Mer Tg mouse in which Akt had been persistently activated using an optical microscope.
To the constitutively active Akt-Mer Tg mouse produced in Example 1, 10 μg/μl 4-OHT was intraperitoneally administered at a dose of 10 μl per day from the fourth day to the sixth day after birth (total dose was 100 μg/day×3 days). On the seventh day after birth, perfusion fixation from the heart was performed using 4% paraformaldehyde (abbreviated as “PFA” hereinafter). Then, a retinal cup was produced from the removed eyeball, and an optical micrograph showing the retina was obtained using MZ16F (Leica). A mouse to which 4-OHT was not administered was used as a control and subjected to the same treatment, and then an image was obtained.

[2] = test system: retina of the constitutively active Akt-Mer Tg mouse; assay: Retinal vascular permeability, Evans blue leakage (Example 6); settings: 4-OHT i.p. 10 μg/μl, 10 μl per day, 4th to 6th day after birth
Protocol: To the constitutively active Akt-Mer Tg mouse produced in Example 1, 10 μg/μl 4-OHT was intraperitoneally administered at a dose of 10 μl per day from the fourth day to the sixth day after birth (total dose was […]). On the seventh day after birth, 20 μl of Evans blue was intraperitoneally administered, and 1 hour after this, perfusion fixation from the heart was performed using 4% PFA, and then, the eyeball was removed. An image of the removed eyeball was obtained using an MZ16F stereoscopic microscope (Leica). A mouse to which 4-OHT was not administered was used as a control and subjected to the same treatment, and then an image was obtained.
Furthermore, for the purpose of evaluating the vascular permeability in a quantitative manner, the fluorescence intensity of Evans blue leaking from the retinal blood vessels was measured using an LSM710 confocal microscope (Zeiss) (***<0.001).

[3] = test system: retina of the constitutively active Akt-Mer Tg mouse; assay: Retinal cryosection with Hoechst staining, retinal surface layer (Example 7); settings: 4-OHT i.p. 100 μg/day×3 days; 7th day after birth; vs control
Protocol: To the constitutively active Akt-Mer Tg mouse produced in Example 1, 10 μg/μl 4-OHT was intraperitoneally administered at a dose of 10 μl per day from the fourth day to the sixth day after birth (total dose was 100 μg/day×3 days). On the seventh day after birth, perfusion fixation from the heart was performed using 4% PFA. The eyeball was removed, and then a retinal cryosection was produced. The nuclei were visualized through Hoechst staining, and an image was obtained using a microscope (Zeiss). A mouse to which 4-OHT was not administered was used as a control and subjected to the same treatment, and then an image was obtained.

[4] = test system: retina of the constitutively active Akt-Mer Tg mouse; assay: Whole-mount immunostaining (anti PECAM-1) of the retina, retinal vascular morphology (Examples 4, 5)
Protocol: (§1) To the constitutively active Akt-Mer Tg mouse produced in Example 1, 10 μg/μl 4-OHT was intraperitoneally administered at a dose of 10 μl per day from the fourth day to the sixth day after birth (total dose was 100 μg/day×3 days). On the seventh day after birth, perfusion fixation from the heart was performed using 4% PFA, and then a retinal cup was produced from the removed eyeball. Fluorescent immunostaining using an anti PECAM-1 (platelet endothelial cell adhesion molecule-1: CD31) antibody was performed to stain vascular endothelial cells. Subsequently, a flat-mount image of the retina was obtained using AxioObserver (Zeiss). A mouse to which 4-OHT was not administered was used as a control and subjected to the same treatment, and then an image was obtained.
For the purpose of further investigating the retinal vascular morphology in detail, the vascular lengths and vascular diameters were measured. Specifically, regarding the vascular lengths, a distance from the peripheral edge of the optic papilla to the leading end of the extending blood vessel along a vein was measured using Photoshop CS5 software. The vascular lengths at four positions in one retina were measured and quantified. Regarding the arterial diameters and venous diameters, the thickness of arteries and veins located on the circumference of a circle with a radius of 1500 μm about the optical papilla was measured also using Photoshop CS5 software (**<0.01).
as §1, with “1, 1” for “1, 10”, “was 10” for “was 100”, “days). This dose was one tenth of the dose in the previous examples.” for “days).”, “was produced.” for “was produced from the removed eyeball.”, “PECAM-1 (CD31)” for “PECAM-1 (platelet endothelial cell adhesion molecule-1: CD31)”, “was performed, and” for “was performed to stain vascular endothelial cells. Subsequently,”
For the purpose of further investigating the retinal vascular morphology in detail, the number of microaneurysms was measured. Specifically, regarding the measurement of the number of microaneurysms, the number of microaneurysms in one retina was manually measured using the flat-mount image of the retina.

[5] = 4-OHT i.p. 100 μg/day×3 days, observed 7th day after birth, vs control

Substance: 4-hydroxytamoxifen [4-OHT]
- retinal hemorrhage [1]: punctuate retinal hemorrhage was observed
- vascular permeability (leakage of Evans blue from blood vessels) ([2]; Evans blue i.p. on 7th day, 1 hour): the vascular permeability was increased
- fluorescence intensity of Evans blue leaking from the retinal blood vessels ([2]; confocal microscope, ***<0.001 vs control): significantly larger than that in the control
- swelling of overall retina, particularly the surface layer [3]: significantly swollen
- number of microaneurysms in one retina (average) ([4]; 4-OHT i.p. 10 μg/day×3 days, 7th day after birth, hardly observed in control): 90
- vascular network formation ([4]; 4-OHT i.p. 100 μg/day×3 days, 4th to 6th day after birth, observed 7th day, vs control): the formation of a dense vascular network was observed
- formation of microaneurysms ([4]; 4-OHT i.p. 100 μg/day×3 days, observed 7th day after birth): the formation of microaneurysms, which have a varicose structure, was induced
- extension of blood vessels [4, 5]: the extension of blood vessels was delayed compared with the control
- vascular diameters (arteries, veins, capillaries) [4, 5]: the overall retinal blood vessels significantly expanded
- formation of microaneurysms ([4]; low-concentration 4-OHT i.p. 10 μg/day×3 days, observed 7th day after birth): the formation of microaneurysms was also induced
